According to PMC6127842, “Identification of flavonolignans from Silybum marianum seeds as allosteric protein tyrosine phosphatase 1B inhibitors” (Journal of Enzyme Inhibition and Medicinal Chemistry, 2018):

How the values were obtained:
[1] = biological target: T1, T-cell protein tyrosine phosphatase (TCPTP, human recombinant) (Homo sapiens, UniProt P17706); experiment: TCPTP inhibitory activity assay with p-NPP; type: biochemical; settings: mean ± SD, three experiments, read-out: Inhibition rate (%) TCPTP
T1 construct: purchased Enzo Life Sciences, Inc. (Lausen, Switzerland)
T1 sequence (P17706 1-415): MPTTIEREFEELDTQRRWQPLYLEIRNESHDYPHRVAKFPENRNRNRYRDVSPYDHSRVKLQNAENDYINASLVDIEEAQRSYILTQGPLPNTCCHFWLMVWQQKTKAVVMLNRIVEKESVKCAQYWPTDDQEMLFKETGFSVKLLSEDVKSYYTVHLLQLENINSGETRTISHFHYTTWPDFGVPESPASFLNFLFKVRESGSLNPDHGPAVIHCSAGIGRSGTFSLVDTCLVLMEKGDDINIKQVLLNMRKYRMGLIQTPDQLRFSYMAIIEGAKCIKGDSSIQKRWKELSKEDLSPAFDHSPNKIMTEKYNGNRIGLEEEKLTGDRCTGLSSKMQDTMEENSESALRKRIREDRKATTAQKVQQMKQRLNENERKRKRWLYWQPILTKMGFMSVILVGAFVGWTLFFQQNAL

[2] = biological target: T2, SHP-1 (human recombinant) (Homo sapiens, UniProt P29350); experiment: SHP-1 inhibitory activity assay with p-NPP; type: biochemical; settings: mean ± SD, three experiments, read-out: Inhibition rate (%) SHP-1
T2 construct: purchased Sigma-Aldrich Co., LLC; (St Louis, MO)
T2 sequence (P29350 whole entry): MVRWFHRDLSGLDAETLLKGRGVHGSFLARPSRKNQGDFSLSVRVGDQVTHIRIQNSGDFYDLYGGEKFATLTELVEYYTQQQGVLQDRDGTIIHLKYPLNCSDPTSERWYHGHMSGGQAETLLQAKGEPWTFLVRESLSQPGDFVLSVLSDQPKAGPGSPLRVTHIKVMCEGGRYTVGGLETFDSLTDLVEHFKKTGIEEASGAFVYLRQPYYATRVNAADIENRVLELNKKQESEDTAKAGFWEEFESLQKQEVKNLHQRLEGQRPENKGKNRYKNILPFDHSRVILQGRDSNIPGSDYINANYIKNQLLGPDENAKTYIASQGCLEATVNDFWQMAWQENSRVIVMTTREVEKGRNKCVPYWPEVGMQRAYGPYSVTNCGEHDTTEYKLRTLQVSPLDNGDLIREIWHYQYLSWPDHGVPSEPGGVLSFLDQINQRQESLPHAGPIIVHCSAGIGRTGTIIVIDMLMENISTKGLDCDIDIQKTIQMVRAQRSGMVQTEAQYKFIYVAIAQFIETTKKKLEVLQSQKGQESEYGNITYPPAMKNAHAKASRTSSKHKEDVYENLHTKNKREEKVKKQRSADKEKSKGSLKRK

[3] = biological target: T3, PTP1B (human recombinant) (Homo sapiens, UniProt P18031); experiment: Kinetic analysis of PTP1B inhibition (Lineweaver–Burk, secondary plot); type: biochemical; settings: for Inhibition type: Lineweaver–Burk, p-NPP 4, 8, 16 mM; for Ki: secondary plot of Lineweaver–Burk slopes
T3 construct: purchased Enzo Life Sciences, Inc. (Lausen, Switzerland)
T3 sequence (P18031 1-435): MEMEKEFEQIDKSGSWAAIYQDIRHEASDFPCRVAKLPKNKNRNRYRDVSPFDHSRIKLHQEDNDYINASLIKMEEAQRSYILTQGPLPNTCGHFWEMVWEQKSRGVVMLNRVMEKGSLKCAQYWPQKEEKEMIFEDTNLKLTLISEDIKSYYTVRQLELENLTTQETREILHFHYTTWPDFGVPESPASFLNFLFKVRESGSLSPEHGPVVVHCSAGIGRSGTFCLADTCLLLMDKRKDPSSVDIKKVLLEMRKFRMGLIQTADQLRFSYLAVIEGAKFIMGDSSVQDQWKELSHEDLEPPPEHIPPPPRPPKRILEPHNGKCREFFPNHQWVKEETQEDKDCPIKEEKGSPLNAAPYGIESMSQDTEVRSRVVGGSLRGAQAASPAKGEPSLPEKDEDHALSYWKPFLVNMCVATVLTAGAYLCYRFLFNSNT
Method: PTP1B inhibitory activity was measured using p-NPP as the substrate. A mixture consisting of p-NPP and PTP1B in a buffer containing 0.06 M citrate (pH 6.0), 0.1 M NaCl, 1 mM EDTA, and 1 mM DTT with or without a tested compound solution (prepared in the above buffer solution containing 30% dimethyl sulfoxide), was incubated at 37 °C for 30 min. The substrate was used at a concentration of 4 mM. The reaction was terminated by adding 20 µL of 10 M NaOH. The reaction mixture was blended by a microplate mixer for 5 min and the amount of produced p-nitrophenol was tested by measuring the absorbance at 405 nm. The blank was measured in the same way except adding a buffer solution instead of the enzyme. […] All compounds used for bioassay were confirmed the purity >98% by HPLC-PDA and ^1H NMR spectroscopic analyses.
To elucidate the inhibition mode, the inhibition kinetics of compounds 1–5 were analyzed by the Lineweaver–Burk method with various substrate concentrations of p-NPP (4, 8, 16 mM). The initial reaction velocities were measured with and without the inhibitor.
(A) Lineweaver–Burk plots of compounds 1–5. The final concentration of compounds 1–5 was as follows: 1; 0, 1.0, 2.0, and 3.0 μM, 2; 0, 4.0, 6.0, and 8.0 μM, 3; 0, 1.3, 2.5, and 3.0 μM, 4; 0, 1.0, 2.0, and 3.0 μM, and 5; 0, 4.0, 6.0, and 8.0 μM. (B) The second plots of A.

[4] = biological target: T3, PTP1B (human recombinant); experiment: PTP1B inhibitory activity assay with p-NPP as substrate; type: biochemical; settings: for IC50: p-NPP 4 mM, pH 6.0, 37 °C, 30 min, means ± SD, n = 3, NA = no activity >50 μM, read-out: IC50 against PTP1B
Method: PTP1B inhibitory activity was measured using p-NPP as the substrate. A mixture consisting of p-NPP and PTP1B in a buffer containing 0.06 M citrate (pH 6.0), 0.1 M NaCl, 1 mM EDTA, and 1 mM DTT with or without a tested compound solution (prepared in the above buffer solution containing 30% dimethyl sulfoxide), was incubated at 37 °C for 30 min. The substrate was used at a concentration of 4 mM. The reaction was terminated by adding 20 µL of 10 M NaOH. The reaction mixture was blended by a microplate mixer for 5 min and the amount of produced p-nitrophenol was tested by measuring the absorbance at 405 nm. The blank was measured in the same way except adding a buffer solution instead of the enzyme.

[5] = biological target: T4, Vaccinia H1-related phosphatase (VHR, human recombinant) (Homo sapiens, UniProt P51452); experiment: biochemical; settings: read-out: Inhibition rate (%) VHR
T4 construct: purchased Enzo Life Sciences, Inc. (Lausen, Switzerland)
T4 sequence (P51452 whole entry): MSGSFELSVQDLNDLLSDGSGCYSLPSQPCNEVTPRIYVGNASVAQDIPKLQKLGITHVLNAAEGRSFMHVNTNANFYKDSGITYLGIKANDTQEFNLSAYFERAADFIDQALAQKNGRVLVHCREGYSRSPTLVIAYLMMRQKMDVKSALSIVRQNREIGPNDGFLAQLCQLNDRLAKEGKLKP

[6] = biological target: T5, SHP-2 (human recombinant) (Homo sapiens, UniProt Q06124); experiment: SHP-2 inhibitory activity assay with p-NPP; type: biochemical; settings: mean ± SD, three experiments, read-out: Inhibition rate (%) SHP-2
T5 construct: purchased Sigma-Aldrich Co., LLC; (St Louis, MO)
T5 sequence (Q06124 1-593): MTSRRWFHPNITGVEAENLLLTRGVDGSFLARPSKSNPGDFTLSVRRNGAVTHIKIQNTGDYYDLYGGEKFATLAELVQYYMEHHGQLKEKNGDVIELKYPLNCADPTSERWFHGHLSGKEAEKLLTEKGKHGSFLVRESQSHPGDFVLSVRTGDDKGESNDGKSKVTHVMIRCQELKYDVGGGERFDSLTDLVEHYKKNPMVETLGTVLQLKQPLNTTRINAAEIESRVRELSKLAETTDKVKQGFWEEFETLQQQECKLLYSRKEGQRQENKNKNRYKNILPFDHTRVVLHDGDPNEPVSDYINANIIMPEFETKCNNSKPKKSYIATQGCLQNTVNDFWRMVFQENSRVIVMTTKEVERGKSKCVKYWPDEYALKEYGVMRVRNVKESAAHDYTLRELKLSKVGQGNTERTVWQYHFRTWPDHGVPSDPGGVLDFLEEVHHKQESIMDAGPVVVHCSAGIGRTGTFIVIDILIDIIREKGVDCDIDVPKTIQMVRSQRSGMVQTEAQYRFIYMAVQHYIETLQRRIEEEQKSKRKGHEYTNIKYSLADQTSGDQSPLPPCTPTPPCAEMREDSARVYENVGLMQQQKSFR

[7] = mean ± SD, three experiments, read-out: Inhibition rate (%) PTP1B

SMILES: COc1cc([C@H]2Oc3cc([C@H]4Oc5cc(O)cc(O)c5C(=O)[C@@H]4O)ccc3O[C@@H]2CO)ccc1O [Compound 1, Silybin A]
- inhibition at 4 µM [1]: 15.7 ± 1.9%
- inhibition at 4 µM [2]: 33.4 ± 0.4%
- Inhibition type [3]: Non-competitive
- Ki [3]: 1250 nM
- inhibition at 4 µM [4, 7]: 90.3 ± 0.9%
- IC50 [4]: 1.54 ± 0.22 µM
- inhibition at 4 µM [5]: 60.6 ± 2.2%
- inhibition at 4 µM [6]: 32.7 ± 1.8%

SMILES: COc1cc([C@@H]2Oc3cc([C@H]4Oc5cc(O)cc(O)c5C(=O)[C@@H]4O)ccc3O[C@H]2CO)ccc1O [Compound 2, Silybin B]
- inhibition at 12 µM ([1]; 12 μM): 32.1 ± 2.3%
- inhibition at 12 µM ([2]; 12 μM): 34.4 ± 1.9%
- Inhibition type [3]: Non-competitive
- Ki [3]: 4050 nM
- inhibition at 12 µM ([4]; 12 μM, mean ± SD, three experiments, read-out: Inhibition rate (%) PTP1B): 89 ± 2.1%
- IC50 [4]: 5.65 ± 0.2 µM
- inhibition at 12 µM [5]: 65.6 ± 4.2%
- inhibition at 12 µM ([6]; 12 μM): 37.5 ± 2.2%

SMILES: COc1cc([C@H]2Oc3ccc([C@H]4Oc5cc(O)cc(O)c5C(=O)[C@@H]4O)cc3O[C@@H]2CO)ccc1O [Compound 3, Isosilybin A]
- inhibition at 6 µM ([1]; 6.0 μM): 27.5 ± 0.8%
- inhibition at 6 µM ([2]; 6.0 μM): 30.6 ± 1.8%
- Inhibition type [3]: Non-competitive
- Ki [3]: 2250 nM
- inhibition at 6 µM ([4]; 6.0 μM, mean ± SD, three experiments, read-out: Inhibition rate (%) PTP1B): 90.7 ± 1.1%
- IC50 [4]: 2.65 ± 0.13 µM
- inhibition at 6 µM [5]: 59.2 ± 2.4%
- inhibition at 6 µM ([6]; 6.0 μM): 49 ± 2.1%

SMILES: COc1cc([C@@H]2Oc3ccc([C@H]4Oc5cc(O)cc(O)c5C(=O)[C@@H]4O)cc3O[C@H]2CO)ccc1O [Compound 4, Isosilybin B]
- inhibition at 4 µM [1]: 16.4 ± 1.5%
- inhibition at 4 µM [2]: 22.9 ± 2.1%
- Inhibition type [3]: Non-competitive
- Ki [3]: 1030 nM
- inhibition at 4 µM [4, 7]: 92.1 ± 1.7%
- IC50 [4]: 1.37 ± 0.22 µM
- inhibition at 4 µM [5]: 61.4 ± 3%
- inhibition at 4 µM [6]: 50.1 ± 1.5%

SMILES: COc1cc([C@@H]2Oc3c(O)cc([C@H]4Oc5cc(O)cc(O)c5C(=O)[C@@H]4O)cc3[C@H]2CO)ccc1O [Compound 5, Silychristin A]
- inhibition at 20 µM ([1]; 20 μM): 32.2 ± 1.9%
- inhibition at 20 µM ([2]; 20 μM): 25.9 ± 1.4%
- Inhibition type [3]: Non-competitive
- Ki [3]: 3950 nM
- inhibition at 20 µM ([4]; 20 μM, mean ± SD, three experiments, read-out: Inhibition rate (%) PTP1B): 89.2 ± 2.6%
- IC50 [4]: 5.58 ± 0.33 µM
- inhibition at 20 µM [5]: 67.5 ± 1.4%
- inhibition at 20 µM ([6]; 20 μM): 48.6 ± 1.9%

SMILES: COc1cc([C@H]2Oc3c(O)cc([C@H]4Oc5cc(O)cc(O)c5C(=O)[C@@H]4O)cc3[C@@H]2CO)ccc1O [Compound 6, Silychristin B]
- IC50 [4]: 23.9 ± 2.25 µM

SMILES: COc1cc([C@@H]2Oc3c(O)ccc([C@H]4Oc5cc(O)cc(O)c5C(=O)[C@@H]4O)c3[C@H]2CO)ccc1O [Compound 7, Isosilychristin A]
- IC50 [4]: 6.55 ± 0.09 µM

SMILES: COc1cc([C@@H]2Oc3c(O)cc(-c4oc5cc(O)cc(O)c5c(=O)c4O)cc3[C@H]2CO)ccc1O [Compound 8, Dehydrosilychristin A]
- IC50 [4]: 7.18 ± 0.12 µM

SMILES: COc1cc([C@@H]2[C@H]3CO[C@@]4(O)C(=O)[C@@H]2C=C([C@H]2Oc5cc(O)cc(O)c5C(=O)[C@@H]2O)[C@@H]34)ccc1O [Compound 9, Silydianin]
- IC50 [4]: > 50 µM

SMILES: COc1cc(C2C3C=C(c4oc5cc(O)cc(O)c5c(=O)c4O)C4C2COC4(O)C3=O)ccc1O (stereo not shown) [Compound 10, Dehydrosilydianin]
- IC50 [4]: > 50 µM

SMILES: COc1cc(C2C(C(=O)O)C=C(C3Oc4cc(O)cc(O)c4C(=O)C3O)C3C(=O)OCC32)ccc1O (stereo not shown) [Compound 11, Silyamandin]
- IC50 [4]: 17.4 ± 0.67 µM
